# Values joined by “and” are separate entries in the source; they are usually repeats but may differ in a detail not shown here. Equal values may be shown once. Read-outs that look alike come from different tables or passages of the source.
# Experiments:
# WT CFTR [1] = molecular target: T1, WT CFTR (Homo sapiens, UniProt P13569); assay: Macroscopic current recording in excised inside-out patches from Xenopus laevis oocytes; type: biochemical; conditions: for EC50: 2 mM ATP, 25°C, read-out: K0.5 for current stimulation
# T1 construct: expressed in transfected cells; host or cells: Xenopus laevis oocytes injected with cRNA transcribed from pGEMHE-CFTR
# Excerpt: We reasoned that this circumstance might explain some of the puzzling features of the drug, such as CFTR channel inactivation observed in some cases ([Cholon et al., 2014]), as well as apparent irreversibility of drug effects ([Jih and Hwang, 2013]; [Lin et al., 2016]; [Yeh et al., 2015]; [Yeh et al., 2017]; [Wang et al., 2014]; [Wang et al., 2018]). To investigate stability and reversibility of Vx-770 effects in a concentration range that can be achieved in the human body during oral drug administration, we tested the effects of our 1x saturated Vx-770 solution and its dilutions in inside-out patches excised from Xenopus laevis oocytes expressing WT or mutant human CFTR channels.
# (§1) Patch pipette solution contained (in mM): 136 NMDG-Cl, 2 MgCl2, 5 HEPES, pH = 7.4 with NMDG. Bath solution contained (in mM): 134 NMDG-Cl, 2 MgCl2, 5 HEPES, 0.5 EGTA, pH = 7.1 with NMDG. MgATP (2 mM) was added from a 400 mM aqueous stock solution (pH = 7.1 with NMDG). Before each experiment 300 nM catalytic subunit of PKA (Sigma-Aldrich Kft., Budapest, Hungary) was applied for ~1 min to phosphorylate CFTR channels. Vx-770 (Selleck Chemicals) was diluted into the bath solution either from a ‘1x saturated’ aqueous stock solution (see above, concentration ~62 nM), or from a commercially obtained 10 mM stock dissolved in DMSO (Selleck Chemicals). Following patch excision the patch pipette was moved into a flow chamber, and recordings were done under continuous superfusion of the cytosolic patch surface. Solution compositions were exchanged using computer-driven electronic valves (solution exchange time constant <50 ms). After each recording day perfusion tubings were extensively washed with distilled water. Although supersaturated solutions of Vx-770 were not employed here, any perfusion tubing that had ever been in contact with a given concentration of Vx-770 was subsequently used only for solutions that contained the same, or higher, concentrations of the drug. After every 5–6 experimental days the entire perfusion system was replaced. Currents were recorded at 25°C, at a membrane potential of −40 mV, digitized at 10 kHz, Gaussian-filtered at 2 kHz, and recorded to disk (Axopatch 200B, Digidata 1322A, Pclamp9 (Molecular Devices, RRID: SCR_011323)). For display purposes, currents are shown filtered at 10 Hz and sampled at 20 Hz, and expanded single-channel traces (Figure 2b, Figure 4d) are shown filtered at 50 Hz and sampled at 250 Hz.
# Vx-770 was applied after currents elicited by 2 mM ATP had stabilized. To allow for full development of its potentiator effect, Vx-770 was superfused until the current reached steady state which, for low nanomolar Vx-770, required up to 5–6 min. After full stimulation, Vx-770 was washed off for at least 5 min to allow the current to decline to a post-drug steady state. Fractional current stimulation by Vx-770 (I/Icontrol) was calculated as the mean steady current in the presence of the drug, divided by the average of the pre- and post-drug mean steady currents. Dose response curves (Figure 3c,f) were least-squares fitted to the modified Hill equation I/Icontrol=(K0.5^n+(Imax/Icontrol)[Vx-770]^n)/(K0.5^n+[Vx-770]^n), with Imax/Icontrol, K0.5, and n as free parameters.
# To obtain apparent deactivation rates, current decay time courses following Vx-770 removal were fitted by single exponentials using least squares, and deactivation rates defined as the inverse of the decay time constant (1/τoff; Figure 4c). To obtain apparent activation rates, current activation time courses upon Vx-770 addition were fitted to an empirical three-step kinetic scheme S1→S2→S3→S4. Compound states S1-S4 in this scheme are not interpreted as channel conformational states, but rather as states of the entire system (aqueous solution +patch membrane leaflets + channels), and could reflect various stages of drug distribution among those compartments. […]
# WT CFTR [2] = molecular target: T1, WT CFTR; assay: Single-channel recording in excised inside-out patches, kinetic analysis of microscopic patches; type: biochemical
# Protocol: as §1
# Segments of current recording originating from 1 to 7 active channels were digitally filtered at 50 Hz, and idealized by half-amplitude threshold crossing. Steady-state open probabilities in 2 mM ATP, before or during application of Vx-770 or after its removal (Figure 2c), were calculated from the events lists as the time-average of the fraction of open channels. A closed-open-blocked (C-O-B) kinetic scheme, which separates brief (~10 ms) flickery closures (to state B) from long (~1 s) interburst closures (to state C), was fitted by maximum likelihood to the set of dwell-time histograms for all conductance levels, to obtain microscopic transition rates rCO, rOC, rOB, and rBO, while accounting for a fixed dead time of 6 ms ([Csanády, 2000]). The software is freely available upon request. Mean burst (τb) and interburst (τib) durations were calculated as τb=(1/rOC)(1 + rOB/rBO) and τib=1/rCO, and channel opening and closing rates (Figure 2c) defined as 1/τib and 1/τb, respectively. […]
# [3] = design: method as in FDA report by Vertex Pharmaceuticals Incorporated; conditions: patients, oral, ref FDA report by Vertex Pharmaceuticals Incorporated, cited from earlier work
# [4] = diluted from 10 mM DMSO-based stock
# [5] = single channel, 0.05x saturated (~3 nM) Vx-770
# T1 sequence (P13569 whole entry): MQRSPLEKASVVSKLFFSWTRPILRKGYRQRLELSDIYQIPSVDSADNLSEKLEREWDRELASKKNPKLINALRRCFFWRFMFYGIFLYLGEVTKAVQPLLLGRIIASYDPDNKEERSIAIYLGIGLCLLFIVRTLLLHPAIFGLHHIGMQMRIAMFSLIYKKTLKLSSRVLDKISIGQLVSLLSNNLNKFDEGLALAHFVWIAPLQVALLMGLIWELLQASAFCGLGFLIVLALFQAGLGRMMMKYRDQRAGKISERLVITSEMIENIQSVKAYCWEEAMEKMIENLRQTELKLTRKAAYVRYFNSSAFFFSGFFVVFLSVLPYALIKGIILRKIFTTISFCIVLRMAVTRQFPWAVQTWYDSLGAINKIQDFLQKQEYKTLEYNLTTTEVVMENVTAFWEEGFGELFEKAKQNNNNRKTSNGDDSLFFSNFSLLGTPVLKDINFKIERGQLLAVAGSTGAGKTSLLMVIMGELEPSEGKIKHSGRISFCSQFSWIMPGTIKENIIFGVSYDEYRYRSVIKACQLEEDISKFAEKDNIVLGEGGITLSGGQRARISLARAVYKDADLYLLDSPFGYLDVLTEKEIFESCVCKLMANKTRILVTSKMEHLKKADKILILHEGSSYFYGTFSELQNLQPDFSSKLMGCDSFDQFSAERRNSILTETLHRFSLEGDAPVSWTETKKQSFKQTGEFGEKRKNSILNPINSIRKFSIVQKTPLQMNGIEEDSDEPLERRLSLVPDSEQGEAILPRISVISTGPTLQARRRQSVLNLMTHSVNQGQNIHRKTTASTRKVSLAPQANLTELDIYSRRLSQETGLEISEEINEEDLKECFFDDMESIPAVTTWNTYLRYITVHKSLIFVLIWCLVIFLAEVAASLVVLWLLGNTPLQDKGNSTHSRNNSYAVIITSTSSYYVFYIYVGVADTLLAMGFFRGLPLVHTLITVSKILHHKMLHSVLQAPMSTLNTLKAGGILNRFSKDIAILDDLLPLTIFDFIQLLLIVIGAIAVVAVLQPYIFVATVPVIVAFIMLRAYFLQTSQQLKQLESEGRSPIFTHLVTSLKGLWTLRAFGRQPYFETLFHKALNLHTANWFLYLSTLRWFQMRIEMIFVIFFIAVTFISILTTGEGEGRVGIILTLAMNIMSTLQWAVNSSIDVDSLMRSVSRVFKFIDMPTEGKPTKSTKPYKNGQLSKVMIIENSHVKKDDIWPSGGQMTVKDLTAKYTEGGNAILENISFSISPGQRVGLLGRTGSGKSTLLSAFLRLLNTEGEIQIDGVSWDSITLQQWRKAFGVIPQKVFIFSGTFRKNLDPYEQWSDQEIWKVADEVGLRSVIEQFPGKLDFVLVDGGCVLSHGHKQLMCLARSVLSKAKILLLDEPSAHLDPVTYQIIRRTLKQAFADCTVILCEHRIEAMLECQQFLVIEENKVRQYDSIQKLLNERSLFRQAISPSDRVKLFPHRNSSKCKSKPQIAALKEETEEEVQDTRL
smiles,measurement,setting,value
"CC(C)(C)c1cc(C(C)(C)C)c(NC(=O)c2c[nH]c3ccccc3c2=O)cc1O [Vx-770, ivacaftor]",apparent activation time constant τ*,"WT CFTR [1]; 0.01x saturated Vx-770 (assigned by b20: slower at low concentration), Figure 4a",155 s
same,current stimulation,"WT CFTR [1]; 1x saturated (~62 nM) Vx-770, 2 mM ATP, prephosphorylated channels, -40 mV",~ 4 fold
same,time constant τ of current decline following drug removal,"WT CFTR [1]; after 1x saturated (~62 nM) Vx-770, Figure 2a",145 s
same,time constant τ of current decline following drug removal,WT CFTR [1]; after 1x saturated Vx-770,~ 2 min
same,Hill coefficient,WT CFTR [1]; [4],1.32±0.47
same,EC50,WT CFTR [1]; [4],0.49 ± 0.15 nM
same,Hill coefficient,WT CFTR [1]; diluted from 1x saturated aqueous stock,1.31±0.65
same,EC50,"WT CFTR [1]; diluted from 1x saturated aqueous stock, assuming 62 nM",0.47 ± 0.12 nM
same,delay of onset of current stimulation,WT CFTR [1]; subnanomolar/low nanomolar aqueous drug concentrations,≤ 1 min
same,reversibility of Vx-770 effects,WT CFTR [1]; upon removal of 1x saturated Vx-770,full reversibility
same,apparent K0.5 lower (affinity higher) than previously reported,WT CFTR [1]; versus ~300 nM reported,~ 600 fold and 600 fold
same,stimulation of open probability,"WT CFTR [2]; 0.05x saturated (~3 nM) Vx-770 (20-fold dilution of 1x stock), 2 mM ATP",~ 4 fold
same,reversibility of effects on channel gating,WT CFTR [2]; following washout of 0.05x saturated Vx-770,fully reversible
same,time of switch back to low-activity gating after drug removal,WT CFTR [2]; [5],~ 5 min
same,time of switch from low- to high-activity gating after initiation of drug exposure,WT CFTR [2]; [5],~ 3 min
same,peak plasma concentration,[3]; twice daily 150 mg (therapeutic),~ 4 μM
same,peak plasma concentration,[3]; twice daily 450 mg (supratherapeutic),> 10 µM

# Reference: paper PMC6594753, “Cystic fibrosis drug ivacaftor stimulates CFTR channels at picomolar concentrations” (eLife, 2019)
